From paper PMC6746705, “Distinct effects of Q925 mutation on intracellular and extracellular Na^+ and K^+ binding to the Na^+, K^+-ATPase” (Scientific Reports, 2019)

System: T1, endogenous COS-1 cell Na+, K+-ATPase
T1 construct: gene ATP1A1; endogenous enzyme in COS-1 plasma membranes
Test: high-affinity phase of biphasic ouabain inhibition of Na+,K+-ATPase activity in plasma membranes
Format: biochemical

## C[C@@H]1O[C@@H](O[C@H]2C[C@@H](O)[C@]3(CO)[C@H]4[C@H](O)C[C@]5(C)[C@@H](C6=CC(=O)OC6)CC[C@]5(O)[C@@H]4CC[C@]3(O)C2)[C@H](O)[C@H](O)[C@H]1O [ouabain]
  IC50: ~1 µM
